According to US20090203877A1, “X-RAY-DENSE CONJUGATE” (Eberhard-Karls-Universitaet Tuebingen Universitaetsklinkum, priority 2006, published 2009):
“Also recorded” adds a separate entry of the source.

Assays:
[1] = test system: human malignant LN18 glioma cells; experiment: Uptake/staining of cells by FITC-labelled conjugates (CLSM, FACS, semi-thin sections); assay type: cell-based; conditions: for staining rate / number of stained cells: free compound co-incubated with conjugate 3 (260 μM); for cells strongly stained by FITC, FACS histogram: free unbound compound incubated in combination with conjugate 3 (260 μM)
Experimental: (§1) The human malignant U373 and LN18 glioma cells were cultivated in 75 cm^2 culture flasks (Corning Costar) (70% confluency) under the conditions as described under 1.4, detached from the flask bottom with Accutase™ (PAA Laboratories) and in the following distributed on Eppendorf tubes (Eppendorf, Hamburg, Germany) (6×10^6 per tube). The cells in the first tube serve as a control (only PBS buffer only). The cells in the other ten tubes were each incubated with benzoic acid (BA), monoiodobenzoic acid (MIBA) or diiodobenzoic acid (DIBA) alone (260 μM), conjugate 3 alone (260 μM), conjugate 3 plus either BA, MIBA or DIBA (260 μM), respectively, and the conjugates 9, 10, and 11 alone. (260 μM).
After an incubation of 20 minutes at 37° C./5% CO2 the cells were washed three times with PBS buffer and centrifuged at 800 rpm (rounds per minute) for 5 minutes. The fluorescence was measured in Becton Dickinson FACSCalibur as described under 1.4. The computer tomography was performed as described under 1.5.1. The examinations were repeated two times. […]
(§2) The FACS analysis was performed as described under 1.4. The assay was repeated two times.
(§3) For the CT and FACS examinations human LN18 and U373 glioma cells were cultivated in 75 cm^2 culture flasks (70% confluency) (conditions as described under section 1). Accutase™ (PAA Laboratories) was added to detach the cell from the culture bottom. The cells were collected and then distributed on Eppendorf-tubes (6×10^6 cells per tube). […] The next three tubes were used for the coincubation of the cells either with trichlorobenzoic acid (TCBA), trifluorobenzoic acid (TFBA) or tribromophenyl Isocyanat (TBPI) and the NLS-FITC-conjugate 3 (260 μM). As control cells were used which were only either incubated with CIBA, FIBA, TBPI (in each case 260 μM in PBS) or with PBS-buffer (native control) alone. […] The computer tomography and FACS analysis of the cell centrifuges were performed as described in 1.5.1 or 1.4, respectively for three times.
All measurements were performed on living cells.
All measurements were performed on living cells in triplicates.
A part of the cells which were stained for the FACS analysis, was fixed by paraformaldehyl with 2% Agar, dehydrogenized in ethanol, embedded in Lowicryl K4M (Polysciences, Eppelheim, Germany) and according to the information of the manufacturer UV-polymerised at room temperature. Semi-thin sections (about 0.4 μm) were cut and evaluated by means of fluorescence microscopy.

[2] = test system: human malignant U373 glioma cells; experiment: Cell viability / cell death (MTT test, propidium iodide, annexin-V-Alexa 568 binding, FACS scatter morphology); conditions: 260 μM in PBS, 20 min, substance alone
Experimental: Human malignant U373-glioma cells were grown to 70% confluency in RPMI-1640 Ready Mix Medium containing L-Glutamine and 10% FBS-Gold (PAA laboratories, Pasching, Austria) at 37° C., 5% CO2 (vol/vol), in 4-well-plates (NUNC, Wiesbaden, Germany) with about 300,000 cells pro well. […] After this, the cells were washed three times with buffer and then incubated with Ready Mix Medium again. Cell viability was then assessed by the addition of methyl-thiazoyl-tetrazolium (MTT) salt (Sigma-Aldrich, Germany) at a concentration of 15 mg/ml. After 20 minutes, the production of formazan was investigated. When blue formazan granules were detected, propidium iodine (PI) was added to the medium (1 μM PI; Molecular Probes, Eugene, Oreg., USA) to detect cells with damaged cell membranes. […] Pictures were taken with a 3-CCD color video camera (MC3254P, Sony, Japan) and the Axiovision Software (Carl Zeiss, Jena, Germany). The intensity of cell fluorescence was recorded at the exposure time necessary for the production of the fluorescence images.
After imaging, Accutase™ (PAA laboratories, Pasching, Austria) was added to the wells to achieve detachment of the cells for further FACS analysis. Fluorescence was measured in a Becton Dickinson FACSCalibur. A total of 20,000 events per sample were analyzed. The investigations were performed in triplicate.
A sample of cells from each Eppendorf tube was subjected to the MTT test (described under 1.4) to determine microscopically whether the cells were viable. In vitro CT of the cell pellets was performed with a Somatom Sensation 16 (Siemens) which is used for routine clinical investigations.
Cells were incubated for 20 minutes with each of the conjugates dissolved in 0.1% DMSO/PBS at 260 μm. The cells were also incubated with TIBA and both of the non-TIBA-containing conjugates (3 and 4) separately in 0.1% DMSO/OBS at 260 μm. Both TIBA and the conjugates were dissolved in 0.1% DMSO/PBS at 260 μm for incubation due to the insolubility of TIBA (but not the conjugates) in pure PBS. As controls, the cells were incubated with PBS alone, 0.1% DMSO/PBS alone, and TIBA alone (260 μm in 0.1% DMSO/PBS).
The detection of phosphatidyl serine in the outer membrane leaflet of apoptotic cells was performed with the Annexin-V-Alexa™-568-reagent according to manufacturer's protocol (Roche Molecular Biochemicals, Indianapolis, USA). The confocal laser-scanning microscopy was performed on an inverted LSM 510 laser-scanning microscope (Carl Zeiss, Jena, Germany) (objectives: LD Achroplan 40×0.6, Plan Neofluar 20×0.50, 40×0.75). For fluorescence excitation, the 488 nm line of an argon-ion laser and the […] line of a helium-neon laser with appropriate beam splitters and barrier filters were used for FITC and Alexa respectively. Superimposed images of FITC- and Alexa-stained samples were created by overlaying coincident views. All measurements were performed on living, non-fixed cells.
Human malignant LN18 and U373 glioma cells were cultivated in four-well plates (NUNC, Wiesbaden, Germany) (about 300,000 cells per well) as described under 1.5. […] The cells were also coincubated either with CIBA, FIBA or TBPI as well as the NLS-FITC conjugate 3 (each 260 μM). As a control cells were used which were only incubated either with CIBA, FIBA or TBPI (260 μM in PBS) alone. After the incubation the cells were washed three times with PBS and in the following again incubated in Ready Mix Medium. The FITC-labelled conjugates and the Alexa-Annexin for the detection of phosphatidylserine as a signal of the cell death were localized with the confocal laser microscopy (CLSM) as in 1.6.1. All measurements were performed on living cells.

[3] = test system: human malignant LN18 glioma cells; experiment: Cell viability / cell death (annexin-V-Alexa 568 binding, propidium iodide, FACS scatter morphology); assay type: cell-based; conditions: for influence on the cell viability: free compound alone, each 250 μM (FIG. 15)
Experimental: All measurements were performed on living, non-fixed cells. […] All measurements were performed on living cells. […] All measurements were performed on living cells in triplicates. […] All measurements were performed on living cells.

[4] = test system: human malignant U373 glioma cells; experiment: Uptake/staining of cells by FITC-labelled conjugates (fluorescence microscopy, CLSM, FACS, semi-thin sections); assay type: cell-based; conditions: free unbound compound incubated in combination with conjugate 3 (260 μM)
Experimental: Fluorescence was measured in a Becton Dickinson FACSCalibur. […] The investigations were performed in triplicate.
For CT and FACS human U373 glioma cells were grown under the same conditions in 75 cm^2 culture flasks (Corning Costar, Bodenheim, Germany) (70% confluency). Accutase™ (PAA laboratories, Pasching, Austria) was added to achieve detachment of the cells which were harvested and subsequently aliquoted into Eppendorf tubes (6×10^6 cells per tube). As in the investigations performed by fluorescence microscopy, the cells in the first tube served as a control (PBS only). The cells in the other tubes were incubated with 260 μM Ultravist, 260 μM TIBA in PBS and 26 μM, 260 μM and 2.6 mM conjugates 1-4 in PBS. After a 20 minute incubation period at 37° C. in an atmosphere of 5% CO2, the cells were washed three times in PBS and centrifuged at 800 rpm for 5 minutes.
The FACS analysis was performed as described under 1.4.
as §1
After an incubation of 20 minutes at 37° C./5% CO2 the cells were washed three times with PBS buffer and centrifuged at 800 rpm (rounds per minute) for 5 minutes. The fluorescence was measured in Becton Dickinson FACSCalibur as described under 1.4. The computer tomography was performed as described under 1.5.1. The examinations were repeated two times.
For the CT and FACS examinations human LN-18 and U373 glioma cells were cultivated in 75 cm^2 culture flasks (Corning Costar) (70% confluency) (conditions as described under 1.4). Accutase™ (PAA Laboratories) was added to detach the cells from the bottom of the culture flasks. The cells were collected and then distributed on Eppendorf tubes (6×10^6 cells per tube). The cells in the first two tubes serve as a control (in each case only PBS, LN18 and U373 glioma cells, native). The cells in the other tubes (in each case LN18 and U373 glioma cells) were incubated with a 260 μM or 2.6 mM solution of the conjugate 12 for 20 minutes at 37° C. and 5% CO2 and in the following washed for three times with PBS buffer and centrifuged for 5 minutes with 800 rpm (rounds per minute). For a small amount of the cells it was tested by the MMT test (see 1.4) how many of the cells were still viable. The computer tomography of the cell centrifuges was performed with the Somatom Sensation 16 (Siemens).
as §2
as §3, with “times. […]” for “times.”

[5] = 260 μM, 20 min, substance alone
[6] = free compound co-incubated with conjugate 3 (260 μM)

Row | Compound | staining rate / number of stained cells [1] | cytotoxic effects / signs of cell death [2] | cell death / vitality (annexin-V-Alexa 568, propidium iodide) [3, 5] | cell death / vitality (annexin-V-Alexa 568, propidium iodide) [3, 6] | staining rate / number of stained cells ([1]; listed as TPBI) | influence on the cell viability [3] | cell death / vitality (annexin-V-Alexa 568, propidium iodide) ([3]; free compound co-incubated with conjugate 3 (260 μM), listed as TPBI) | staining rate / number of stained cells ([1]; listed as trichlorobenzoic acid) | cells strongly stained by FITC, FACS histogram [1] | cells strongly stained by FITC, FACS histogram [4] | cell death / vitality (annexin-V-Alexa 568, propidium iodide) ([3]; free compound co-incubated with conjugate 3 (260 μM), listed as trichlorobenzoic acid)
1 | O=C(O)c1ccccc1 [BA, benzoic acid, reference compound] | did not result to a considerable change | did not result in cytotoxic effects | did not result in cytotoxic effects | did not result to a considerable change | – | – | – | – | – | – | –
2 | O=C(O)c1cc(I)ccc1I [DIBA, 2,5-diiodobenzoic acid, reference compound] | did not result in a higher staining rate; also recorded: did not result to a considerable change | did not result in cytotoxic effects | did not result in cytotoxic effects | did not result in a binding of annexin-V-Alexa™ 568; also recorded: did not result to a considerable change | – | – | – | – | – | – | –
3 | O=C(O)c1ccc(I)cc1 [MIBA, 4-monoiodobenzoic acid, reference compound] | did not result in a higher staining rate; also recorded: did not result to a considerable change | did not result in cytotoxic effects | did not result in cytotoxic effects | did not result in a binding of annexin-V-Alexa™ 568; also recorded: did not result to a considerable change | – | – | – | – | – | – | –
4 | tribromophenylisocyanate [TBPI] | only in the staining of the nucleus in few cells | – | does not result in a cell death | without an impairment of the vitality | did not result in any considerable change | did not result in any influence on the cell viability | did not result in any considerable change | – | – | – | –
5 | trichlorobenzoic acid [TCBA, reference compound] | did not result in any considerable change | – | – | did not result in any considerable change | – | did not result in any influence on the cell viability | – | only few cells stained in their nuclei | no shift of the histogram peak to the right | no shift of the histogram peak to the right | remain vital
6 | trifluorobenzoic acid [TFBA, reference compound] | few stained cells; also recorded: did not result in any considerable change | – | – | remain vital; also recorded: did not result in any considerable change | – | did not result in any influence on the cell viability | – | – | no shift of the histogram peak to the right | no shift of the histogram peak to the right | –
